Experimental data reported in ChEMBL document CHEMBL1146417, “New anti-HIV-1, antimalarial, and antifungal compounds from Terminalia bellerica” (J Nat Prod, 1997).

Tests used:
[1] = test system: Plasmodium falciparum; assay: Antimalarial activity against chloroquine-sensitive Plasmodium falciparum 3D7 by [3H]hypoxanthine incorporation assay; assay type: functional, organism-based
[2] = test system: Penicillium expansum; assay: Antifungal activity against Penicillium expansum IMI 960902 on TLC plate by bioautographic method; assay type: functional
[3] = test system: Candida albicans; assay: Antifungal activity against Candida albicans IMI 349010 on TLC plate by agar overlay method; assay type: functional
[4] = test system: Human immunodeficiency virus 1; assay: Antiviral activity against HIV1 in MT4 cells assessed as reduction of HIV antigen production; assay type: functional, organism-based; conditions: Human immunodeficiency virus 1, MT4

| Molecule | IC50 [1] | Activity [2] | Activity [3] | EC50 [4] |
| --- | --- | --- | --- | --- |
| Oc1ccc2c(c1)O[C@H](c1ccc3c(c1)OCO3)CC2 | > 50 µM | 3 µg | 6 µg | 7 µM |
| C[C@@H]1[C@H](O)[C@@H](C)/C=C/C=C/C=C/C=C/C=C/C=C/C=C/[C@H](O[C@@H]2O[C@H](C)[C@@H](O)[C@H](N)[C@@H]2O)C[C@@H]2O[C@](O)(C[C@@H](O)C[C@@H](O)[C@H](O)CC[C@@H](O)C[C@@H](O)CC(=O)O[C@H]1C)C[C@H](O)[C@H]2C(=O)O [AMPHOTERICIN B] |  |  | 1 µg |  |
| C=C(Cc1ccc(O)cc1)C(=C)Cc1ccc(O)cc1 [ANOLIGNAN B] | 20.5 µM | 5 µg | >200 µg | 7 µM |
| C=C(Cc1ccc(O)cc1)C(=C)Cc1ccc(OC)cc1O [TERMILIGNAN] | 9.6 µM | 1 µg | 10 µg | 7 µM |
| C=C(Cc1ccc(O)cc1)C(O)(CO)Cc1ccc(OC)cc1O (stereo not drawn) [THANNILIGNAN] | > 50 µM | 2 µg | 80 µg | 7 µM |
| NYSTATIN |  | 0.5 µg |  |  |
